Laboratory results reported in patent US20240400560A1, “BICYCLIC HETEROCYCLIC DERIVATIVE HAVING VIRAL GROWTH INHIBITORY ACTIVITY AND PHARMACEUTICAL COMPOSITION CONTAINING SAME” (Shionogi & Co., Ltd., priority 2021, published 2024).
Like-named read-outs stand apart in the source and are kept apart here.

Assays:
SARS-CoV-2 = test: Inhibitory activity of cytopathic effect (CPE) in HEK293T/ACE2-TMPRSS2 cells; format: cell-based; conditions: Severe acute respiratory syndrome coronavirus 2, HEK-293T, 72 h
SARS-CoV-2 3CL protease = SARS-CoV-2 3CL protease (Severe acute respiratory syndrome coronavirus 2, UniProt P0DTD1); test: Inhibitory activity test against SARS-CoV-2 3CL proteases; format: biochemical
[1] = 50% SARS-CoV-2 infected cell death inhibitory concentration, HEK293T/ACE2-TMPRSS2 cells, CellTiter-Glo 2.0 after 3 days culture, read-out: EC50
[2] = read-out: IC50 (50% SARS-CoV-2 3CL protease inhibitory concentration)
[3] = HEK293T/ACE2-TMPRSS2 cells, cultured 3 days, CellTiter-Glo 2.0 luminescence, read-out: EC50 (50% SARS-CoV-2 infected cell death inhibitory concentration)
[4] = IC50 (50% SARS-CoV-2 3CL protease inhibitory concentration)

Row | Structure (SMILES) | EC50 (SARS-CoV-2; [1]) [nM] | IC50 (SARS-CoV-2 3CL protease; [2]) [nM] | EC50 (SARS-CoV-2; [3]) [nM] | also measured
1 | COc1nc(N2C[C@@H](F)[C@@H](F)C2)cc2c1c(=O)n(-c1cnc3cc(F)ccn13)c(=O)n2-c1ccc(F)c(C(F)F)c1 [Compound I-0961] | 5.82 | 3.4 | – | –
2 | COc1nc(NC2CCC2)cc2c1c(=O)n(-c1cnc3cc(F)ccn13)c(=O)n2-c1ccc(F)c(Cl)c1 [Compound I-1053] | – | < 100 | < 100 | –
3 | COc1nc(N2C[C@@H]3C[C@H]2CO3)cc2c1c(=O)n(-c1cncc(F)c1)c(=O)n2-c1ccc(F)c(F)c1 [Compound I-1030] | – | < 100 | < 100 | –
4 | COc1nc(N2[C@@H]3COC[C@H]2C3)cc2c1c(=O)n(-c1cnc3cc(F)ccn13)c(=O)n2-c1ccc(F)c(Cl)c1 [Compound I-0755] | – | – | – | EC50 (SARS-CoV-2): 7.06 nM; IC50 (SARS-CoV-2 3CL protease; [4]): 5.6 nM
5 | [2H]C([2H])([2H])O[C@@H]1CCN(c2cc3c(c(OC)n2)c(=O)n(-c2cnc4cc(F)ccn24)c(=O)n3-c2cc(F)c(F)c(Cl)c2)C1 [Compound I-0942] | – | < 100 | < 100 | –
6 | [2H]C([2H])([2H])n1cnc(Cn2c(=O)c3c(OC)nc(N4CC[C@@H](F)C4)cc3n(Cc3cc(F)c(F)c(F)c3)c2=O)n1 [Compound I-0917] | – | – | < 100 | IC50 (SARS-CoV-2 3CL protease; [4]): < 100 nM
7 | COCCNc1cc2c(c(OC)n1)c(=O)n(-c1cnc3cc(F)ccn13)c(=O)n2-c1ccc(F)c(Cl)c1 [Compound I-1049] | – | – | < 100 | IC50 (SARS-CoV-2 3CL protease; [4]): < 100 nM
8 | Cn1cnc(Cn2c(=O)c3c4nccnc4c(-c4cc(C(C)(C)O)c(F)cc4Cl)cc3n(Cc3cc(F)c(F)c(Cl)c3)c2=O)n1 [Compound I-0815] | – | < 100 | < 100 | –
9 | Cn1cnc(Cn2c(=O)c3c4nccnc4c(NC4CC5CC5C4)cc3n(Cc3cc(F)c(F)c(Cl)c3)c2=O)n1 (centres unmarked) [Compound I-0586] | – | < 100 | < 100 | –
10 | COc1nc(C2=CCOCC2)cc2c1c(=O)n(-c1cnc3cc(F)ccn13)c(=O)n2-c1ccc(F)c(Cl)c1 [Compound I-1016] | – | < 100 | < 100 | –
11 | COc1nc2c(=O)n(Cc3ncn(C)n3)c(=O)n(Cc3cc(Cl)cc(Cl)c3)c2cc1-c1cc(C#N)ccc1Cl [Compound I-0550] | – | < 100 | < 100 | –
12 | Cn1c(-c2cc(C#N)ccc2Cl)cc2c(c1=O)c(=O)n(-c1cnc3cc(F)ccn13)c(=O)n2Cc1cc(F)c(F)c(F)c1 [Compound I-0727] | 102 | 1.1 | – | –
13 | CNC(=O)[C@@H]1CCN(c2cc3c(c(OC)n2)c(=O)n(-c2cnc4cc(F)ccn24)c(=O)n3-c2ccc(F)c(Cl)c2)C1 [Compound I-1000] | – | < 100 | < 100 | –
14 | COC[C@@H]1CCN(c2cc3c(c(OC)n2)c(=O)n(-c2cncc(Cl)c2)c(=O)n3-c2ccc(F)c(Cl)c2)C1 [Compound I-1008] | – | < 100 | < 100 | –
15 | COc1cc(-c2cc(P(C)(C)=O)ccc2Cl)cc2c1c(=O)n(Cc1ncn(C)n1)c(=O)n2Cc1cc(F)c(F)c(F)c1 [Compound I-0893] | 2330 | 36 | – | –
16 | COc1cc(-c2cc(C#N)ccc2Cl)cc2c1c(=O)n(-c1cnc3ccccn13)c(=O)n2Cc1cc(F)c(F)c(F)c1 [Compound I-0660] | – | < 100 | < 100 | –
17 | COc1nc(N2CC[C@@H](O)C2)cc2c1c(=O)n(-c1cnc3cc(F)c(Cl)cn13)c(=O)n2-c1ccc(F)c(Cl)c1 [Compound I-0952] | – | < 100 | < 100 | –
18 | Cn1cnc(Cn2c(=O)c3c4nccnc4c(N4CCC(F)(F)C4)cc3n(Cc3cc(F)c(F)c(Cl)c3)c2=O)n1 [Compound I-0813] | – | < 100 | < 100 | –
19 | Cn1cnc(Cn2c(=O)c3c4c(c(-c5cc(C#N)ccc5Cl)cc3n(Cc3cc(F)c(F)c(Cl)c3)c2=O)CCO4)n1 [Compound I-0811] | – | < 100 | < 100 | –
20 | COc1nc2c(=O)n(Cc3ncn(C)n3)c(=O)n(Cc3cc(Cl)c(F)cc3C)c2cc1-c1nc(C(F)F)ccc1Cl [Compound I-0884] | – | < 100 | < 100 | –
21 | Cn1cnc(Cn2c(=O)c3c4c(c(-c5cc(C#N)ccc5Cl)cc3n(Cc3cc(F)c(F)c(F)c3)c2=O)[C@@H](O)CO4)n1 [Compound I-0864] | 46.2 | 1.4 | – | –
22 | COc1nc(N2CCC(F)(F)C2)cc2c1c(=O)n(-c1cnc3ccc(C#N)cn13)c(=O)n2-c1ccc(F)c(Cl)c1 [Compound I-0654] | – | < 100 | < 100 | –
23 | COc1ccc(Cl)c(-c2cc3c(nc2OC)c(=O)n(Cc2ncn(C)n2)c(=O)n3Cc2cc(F)c(F)c(Cl)c2)n1 [Compound I-0820] | – | < 100 | < 100 | –
24 | COc1c(-c2cc(C#N)ccc2Cl)cc2c(c(=O)n(Cc3ncn(C)n3)c(=O)n2Cc2cc(F)c(F)c(F)c2)[n+]1[O-] [Compound I-0709] | – | 100 to 1000 | 1000 to 10000 | –
25 | COc1cc(-c2c(Cl)ccc3c2CCN(C)C3=O)cc2c1c(=O)n(Cc1ncn(C)n1)c(=O)n2Cc1cc(F)c(F)c(F)c1 [Compound I-0867] | 47.9 | 1.2 | – | –

Row | Structure (SMILES) | EC50 (SARS-CoV-2; [1]) [nM] | IC50 (SARS-CoV-2 3CL protease; [2]) [nM] | EC50 (SARS-CoV-2; [3]) [nM] | also measured
26 | COc1nc(N2[C@H]3CC[C@@H]2[C@@H](O)C3)cc2c1c(=O)n(Cc1ncn(C)n1)c(=O)n2Cc1cc(F)c(F)c(F)c1 [Compound I-0602] | – | – | – | EC50 (SARS-CoV-2; read-out: EC50 (50% SARS-CoV-2 infected cell death inhibitory concentration)): < 100 nM; IC50 (SARS-CoV-2 3CL protease; [4]): < 100 nM
27 | CNC(=O)c1nc(-c2cc3c(nc2OC)c(=O)n(Cc2ncn(C)n2)c(=O)n3Cc2cc(F)c(F)c(Cl)c2)c(Cl)cc1F [Compound I-0881] | – | < 100 | < 100 | –
28 | COc1nc(N2CC[C@@H](OC)C2)cc2c1c(=O)n(-c1cncc(Cl)c1)c(=O)n2-c1ccc(F)c(Cl)c1 [Compound I-0744] | 6.94 | 1.4 | – | –
29 | COc1nc(-c2c(Cl)ccc3c2CCN(C)C3=O)cc2c1c(=O)n(Cc1ncn(C)n1)c(=O)n2Cc1cc(F)c(F)c(Cl)c1 [Compound I-0874] | 39.2 | 9.4 | – | –
30 | COc1nc2c(=O)n(Cc3ncn(C)n3)c(=O)n(Cc3cc(F)c(F)c(Cl)c3)c2cc1-c1cc(N=S(C)(C)=O)ccc1Cl [Compound I-0887] | 98.2 | 9.8 | – | –
31 | [2H]C([2H])([2H])N1CCc2c(ccc(Cl)c2-c2cc(OC)c3c(=O)n(Cc4ncn(C)n4)c(=O)n(Cc4cc(F)c(F)c(F)c4)c3c2)C1=O [Compound I-0876] | – | < 100 | < 100 | –
32 | COc1nc2c(=O)n(Cc3ncn(C)n3)c(=O)n(Cc3cc(F)c(F)c(Cl)c3)c2cc1-c1nc(C(C)(C)O)ccc1Cl [Compound I-0880] | 17.8 | 4.4 | – | –
33 | COc1cc(N2CCCC2)cc2c1c(=O)n(Cc1ncn(C)n1)c(=O)n2Cc1cc(Cl)ccc1Br [Compound I-0786] | – | < 100 | 100 to 1000 | –
34 | COc1nc(N2CCC(F)(F)C2)cc2c1c(=O)n(-c1cnc3cc(F)ccn13)c(=O)n2-c1ccc(F)c(C(F)F)c1 [Compound I-1015] | – | < 100 | < 100 | –
35 | COc1nc(N2CC[C@@H](F)C2)cc2c1c(=O)n(Cc1ncn(C)n1)c(=O)n2-c1cc(Cl)c(F)c(Cl)c1 [Compound I-0803] | 17.6 | 32 | – | –
36 | COc1nc(N2CC[C@@H](O)C2)cc2c1c(=O)n(-c1cnc3ccc(C#N)cn13)c(=O)n2-c1ccc(F)c(Cl)c1 [Compound I-0992] | – | < 100 | < 100 | –
37 | COc1ccc(Cl)c(-c2cc(OC)c3c(=O)n(Cc4ncn(C)n4)c(=O)n(Cc4cc(F)c(F)c(F)c4)c3c2)n1 [Compound I-0895] | – | < 100 | 100 to 1000 | –
38 | Cn1cnc(Cn2c(=O)c3c4c(c(-c5cc(C(C)(C)O)ccc5Cl)cc3n(Cc3cc(F)c(F)c(Cl)c3)c2=O)CCO4)n1 [Compound I-0812] | 15.8 | 1.1 | – | –
39 | COc1nc(N2CCOCC2)cc2c1c(=O)n(-c1cncc(Cl)c1)c(=O)n2-c1ccc(F)c(Cl)c1 [Compound I-1013] | – | < 100 | < 100 | –
40 | COC[C@@H]1CCN(c2cc3c(c(OC)n2)c(=O)n(-c2cnc4cc(F)ccn24)c(=O)n3-c2ccc(F)c(Cl)c2)C1 [Compound I-1033] | – | < 100 | < 100 | –
41 | O=c1c2c(=O)n(-c3cnc4cc(F)ccn34)c(=O)n(-c3ccc(F)c(Cl)c3)c2cc2n1CC[C@@H]1CCCN21 [Compound I-0955] | 540 | 3.1 | – | –
42 | COc1nc(N2CC(F)C2)cc2c1c(=O)n(-c1cnc3cc(F)ccn13)c(=O)n2-c1ccc(F)c(Cl)c1 [Compound I-0987] | – | < 100 | < 100 | –
43 | [2H]C([2H])([2H])O[C@@H]1CCN(c2cc3c(c(OC)n2)c(=O)n(-c2cncc(F)c2)c(=O)n3-c2ccc(F)c(Cl)c2)C1 [Compound I-0953] | – | < 100 | < 100 | –
44 | COc1nc(N2CC[C@@H](O)C2)cc2c1c(=O)n(-c1cnc3cc(F)ccn13)c(=O)n2Cc1cc(F)c(F)c(Cl)c1 [Compound I-0734] | – | < 100 | < 100 | –
45 | COc1nc2c(=O)n(Cc3ncn(C)n3)c(=O)n(Cc3cc(F)c(F)c(Cl)c3)c2cc1-c1nc(C)ccc1Cl [Compound I-0579] | 12.1 | 5.8 | – | –
46 | COc1cc(-c2cccc(C#N)c2Cl)cc2c1c(=O)n(Cc1ncn(C)n1)c(=O)n2Cc1cc(F)c(F)c(F)c1 [Compound I-0847] | – | < 100 | 100 to 1000 | –
47 | Cn1cnc(Cn2c(=O)c3c4nccnc4c(N4CC(F)(F)C(F)(F)C4)cc3n(Cc3cc(F)c(F)c(Cl)c3)c2=O)n1 [Compound I-0570] | 24.7 | 26 | – | –
48 | COc1nc(N2C[C@H](F)[C@@H](F)C2)cc2c1c(=O)n(-c1cnc3cc(F)ccn13)c(=O)n2-c1ccc(F)c(Cl)c1 [Compound I-0748] | – | < 100 | < 100 | –
49 | Cn1cnc(Cn2c(=O)c3c4c(c(-c5cc(C#N)ccc5Cl)cc3n(Cc3cc(F)c(F)c(F)c3)c2=O)C(F)(F)CO4)n1 [Compound I-0866] | 15.4 | 6.4 | – | –
